Results as given in ChEMBL document CHEMBL4507320, “Data for DCP probe NVS-MALT1” (2021).

How the values were obtained:
[1] = molecular target: Mitogen-activated protein kinase kinase kinase 4 (Homo sapiens) (UniProt Q9Y6R4); conditions: Compound concentration 1000.0 nM
[2] = molecular target: Serine/threonine-protein kinase Nek10 (Homo sapiens) (UniProt Q6ZWH5); conditions: Compound concentration 1000.0 nM
[3] = molecular target: Dual specificity protein kinase CLK1 (Homo sapiens) (UniProt P49759); conditions: Compound concentration 1000.0 nM
[4] = molecular target: Phosphatidylinositol 4-phosphate 5-kinase type-1 gamma (Homo sapiens) (UniProt O60331); conditions: Compound concentration 1000.0 nM
[5] = molecular target: Cyclin-G-associated kinase (Homo sapiens) (UniProt O14976); conditions: Compound concentration 1000.0 nM
[6] = molecular target: 5-hydroxytryptamine receptor 1D (Homo sapiens) (UniProt P28221); conditions: Compound concentration 10.0 uM
[7] = molecular target: MAP kinase-activated protein kinase 5 (Homo sapiens) (UniProt Q8IW41); conditions: Compound concentration 1000.0 nM
[8] = molecular target: Rhodopsin kinase GRK7 (Homo sapiens) (UniProt Q8WTQ7); conditions: Compound concentration 1000.0 nM
[9] = molecular target: Serine/threonine-protein kinase DCLK2 (Homo sapiens) (UniProt Q8N568); conditions: Compound concentration 1000.0 nM
[10] = molecular target: Mitogen-activated protein kinase 4 (Homo sapiens) (UniProt P31152); conditions: Compound concentration 1000.0 nM
[11] = molecular target: Vascular endothelial growth factor receptor 1 (Homo sapiens) (UniProt P17948); conditions: Compound concentration 1000.0 nM
[12] = molecular target: Dual specificity protein kinase CLK3 (Homo sapiens) (UniProt P49761); conditions: Compound concentration 1000.0 nM
[13] = molecular target: Serine/threonine-protein kinase Nek5 (Homo sapiens) (UniProt Q6P3R8); conditions: Compound concentration 1000.0 nM
[14] = molecular target: Receptor-type tyrosine-protein kinase FLT3 (Homo sapiens, UniProt P36888); conditions: Compound concentration 1000.0 nM
[15] = molecular target: Sodium-dependent serotonin transporter (Homo sapiens) (UniProt P31645); conditions: Compound concentration 10.0 uM
[16] = molecular target: Vascular endothelial growth factor receptor 3 (Homo sapiens) (UniProt P35916); conditions: Compound concentration 1000.0 nM
[17] = molecular target: Mitogen-activated protein kinase kinase kinase 20 (Homo sapiens) (UniProt Q9NYL2); conditions: Compound concentration 1000.0 nM
[18] = test system: Phosphatidylinositol 4,5-bisphosphate 3-kinase catalytic subunit alpha isoform (Homo sapiens), P42336 [M1043I]; conditions: Compound concentration 1000.0 nM
[19] = molecular target: Rhodopsin kinase GRK1 (Homo sapiens) (UniProt Q15835); conditions: Compound concentration 1000.0 nM
[20] = molecular target: Proto-oncogene tyrosine-protein kinase receptor Ret (Homo sapiens) (UniProt P07949); conditions: Compound concentration 1000.0 nM
[21] = molecular target: BDNF/NT-3 growth factors receptor (Homo sapiens) (UniProt Q16620); conditions: Compound concentration 1000.0 nM
[22] = molecular target: Mitogen-activated protein kinase 3 (Homo sapiens) (UniProt P27361); conditions: Compound concentration 1000.0 nM
[23] = molecular target: Serine/threonine-protein kinase TNNI3K (Homo sapiens) (UniProt Q59H18); conditions: Compound concentration 1000.0 nM
[24] = molecular target: Mitogen-activated protein kinase kinase kinase kinase 4 (Homo sapiens) (UniProt O95819); conditions: Compound concentration 1000.0 nM
[25] = molecular target: Serine/threonine-protein kinase 33 (Homo sapiens) (UniProt Q9BYT3); conditions: Compound concentration 1000.0 nM
[26] = molecular target: Tyrosine-protein kinase Fes/Fps (Homo sapiens) (UniProt P07332); conditions: Compound concentration 1000.0 nM
[27] = molecular target: Interleukin-1 receptor-associated kinase 3 (Homo sapiens) (UniProt Q9Y616); conditions: Compound concentration 1000.0 nM
[28] = molecular target: Activin receptor type-1-like (Homo sapiens) (UniProt P37023); conditions: Compound concentration 1000.0 nM
[29] = test system: Epidermal growth factor receptor (Homo sapiens), P00533 [L861Q]; conditions: Compound concentration 1000.0 nM
[30] = molecular target: Serine/threonine-protein kinase PAK 3 (Homo sapiens) (UniProt O75914); conditions: Compound concentration 1000.0 nM
[31] = molecular target: 1-phosphatidylinositol 3-phosphate 5-kinase (Homo sapiens) (UniProt Q9Y2I7); conditions: Compound concentration 1000.0 nM
[32] = molecular target: 5-hydroxytryptamine receptor 1B (Homo sapiens) (UniProt P28222); conditions: Compound concentration 10.0 uM
[33] = molecular target: Tyrosine-protein kinase ZAP-70 (Homo sapiens) (UniProt P43403); conditions: Compound concentration 1000.0 nM
[34] = molecular target: Serine/threonine-protein kinase RIO1 (Homo sapiens) (UniProt Q9BRS2); conditions: Compound concentration 1000.0 nM
[35] = molecular target: AP2-associated protein kinase 1 (Homo sapiens) (UniProt Q2M2I8); conditions: Compound concentration 1000.0 nM
[36] = molecular target: Serine/threonine-protein kinase 32B (Homo sapiens) (UniProt Q9NY57); conditions: Compound concentration 1000.0 nM
[37] = molecular target: Cyclin-dependent kinase 4 (Homo sapiens) (UniProt P11802); conditions: Compound concentration 1000.0 nM
[38] = molecular target: Serine/threonine-protein kinase PRP4 homolog (Homo sapiens) (UniProt Q13523); conditions: Compound concentration 1000.0 nM
[39] = molecular target: Myotonin-protein kinase (Homo sapiens) (UniProt Q09013); conditions: Compound concentration 1000.0 nM
[40] = molecular target: Calcium/calmodulin-dependent protein kinase kinase 1 (Homo sapiens) (UniProt Q8N5S9); conditions: Compound concentration 1000.0 nM
[41] = molecular target: 5-hydroxytryptamine receptor 2C (Homo sapiens) (UniProt P28335); conditions: Compound concentration 10.0 uM
[42] = test system: Epidermal growth factor receptor (Homo sapiens), P00533 [UNDEFINED MUTATION]; conditions: Compound concentration 1000.0 nM
[43] = molecular target: Mitogen-activated protein kinase 11 (Homo sapiens) (UniProt Q15759); conditions: Compound concentration 1000.0 nM
[44] = molecular target: Cytoplasmic tyrosine-protein kinase BMX (Homo sapiens) (UniProt P51813); conditions: Compound concentration 1000.0 nM
[45] = molecular target: Phosphatidylinositol 5-phosphate 4-kinase type-2 gamma (Homo sapiens) (UniProt Q8TBX8); conditions: Compound concentration 1000.0 nM
Sequence of Phosphatidylinositol 5-phosphate 4-kinase type-2 gamma (Homo sapiens) (Q8TBX8 whole entry): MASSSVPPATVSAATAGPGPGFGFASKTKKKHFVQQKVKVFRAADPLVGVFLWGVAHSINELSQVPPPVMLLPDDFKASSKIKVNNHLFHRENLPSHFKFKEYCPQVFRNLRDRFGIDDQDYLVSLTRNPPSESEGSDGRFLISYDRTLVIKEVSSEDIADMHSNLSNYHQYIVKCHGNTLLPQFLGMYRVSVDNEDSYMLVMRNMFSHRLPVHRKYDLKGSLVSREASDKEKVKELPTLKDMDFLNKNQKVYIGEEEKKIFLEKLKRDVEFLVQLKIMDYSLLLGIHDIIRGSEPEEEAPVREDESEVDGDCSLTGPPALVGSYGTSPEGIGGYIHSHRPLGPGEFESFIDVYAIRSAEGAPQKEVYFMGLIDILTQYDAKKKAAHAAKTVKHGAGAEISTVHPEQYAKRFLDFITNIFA

Sequence of Interleukin-1 receptor-associated kinase 3 (Homo sapiens) (Q9Y616 whole entry): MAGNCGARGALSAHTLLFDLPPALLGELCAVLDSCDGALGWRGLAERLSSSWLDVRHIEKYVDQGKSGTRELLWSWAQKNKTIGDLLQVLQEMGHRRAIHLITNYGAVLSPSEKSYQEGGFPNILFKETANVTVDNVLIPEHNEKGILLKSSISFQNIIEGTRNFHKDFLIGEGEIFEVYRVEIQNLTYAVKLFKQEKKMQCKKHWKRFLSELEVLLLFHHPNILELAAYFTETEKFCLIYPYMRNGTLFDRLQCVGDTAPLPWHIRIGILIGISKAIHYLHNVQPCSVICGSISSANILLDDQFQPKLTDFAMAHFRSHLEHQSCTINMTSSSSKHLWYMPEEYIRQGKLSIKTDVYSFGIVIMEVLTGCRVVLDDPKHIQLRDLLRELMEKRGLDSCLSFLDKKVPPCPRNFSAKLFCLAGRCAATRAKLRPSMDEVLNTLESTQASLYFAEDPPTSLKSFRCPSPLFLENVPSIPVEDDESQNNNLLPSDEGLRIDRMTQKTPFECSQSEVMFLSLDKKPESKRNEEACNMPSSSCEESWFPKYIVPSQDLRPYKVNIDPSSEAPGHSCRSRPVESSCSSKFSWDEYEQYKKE
Sequence of Calcium/calmodulin-dependent protein kinase kinase 1 (Homo sapiens) (Q8N5S9 whole entry, looked up): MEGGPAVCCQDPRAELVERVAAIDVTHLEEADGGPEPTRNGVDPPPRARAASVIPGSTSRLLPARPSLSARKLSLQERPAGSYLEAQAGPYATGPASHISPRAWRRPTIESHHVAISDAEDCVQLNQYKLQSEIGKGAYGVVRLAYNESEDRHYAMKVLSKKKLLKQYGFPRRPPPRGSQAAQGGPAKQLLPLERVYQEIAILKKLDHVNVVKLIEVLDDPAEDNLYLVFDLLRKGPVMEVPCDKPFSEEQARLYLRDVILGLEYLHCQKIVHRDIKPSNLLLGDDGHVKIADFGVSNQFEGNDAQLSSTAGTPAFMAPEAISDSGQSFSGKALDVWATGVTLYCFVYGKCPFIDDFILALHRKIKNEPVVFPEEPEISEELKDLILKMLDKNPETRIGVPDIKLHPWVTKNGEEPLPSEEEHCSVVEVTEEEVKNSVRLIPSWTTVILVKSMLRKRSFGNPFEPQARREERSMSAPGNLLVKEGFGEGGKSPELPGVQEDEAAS
Sequence of Mitogen-activated protein kinase kinase kinase 20 (Homo sapiens) (Q9NYL2 2-800 limits assumed): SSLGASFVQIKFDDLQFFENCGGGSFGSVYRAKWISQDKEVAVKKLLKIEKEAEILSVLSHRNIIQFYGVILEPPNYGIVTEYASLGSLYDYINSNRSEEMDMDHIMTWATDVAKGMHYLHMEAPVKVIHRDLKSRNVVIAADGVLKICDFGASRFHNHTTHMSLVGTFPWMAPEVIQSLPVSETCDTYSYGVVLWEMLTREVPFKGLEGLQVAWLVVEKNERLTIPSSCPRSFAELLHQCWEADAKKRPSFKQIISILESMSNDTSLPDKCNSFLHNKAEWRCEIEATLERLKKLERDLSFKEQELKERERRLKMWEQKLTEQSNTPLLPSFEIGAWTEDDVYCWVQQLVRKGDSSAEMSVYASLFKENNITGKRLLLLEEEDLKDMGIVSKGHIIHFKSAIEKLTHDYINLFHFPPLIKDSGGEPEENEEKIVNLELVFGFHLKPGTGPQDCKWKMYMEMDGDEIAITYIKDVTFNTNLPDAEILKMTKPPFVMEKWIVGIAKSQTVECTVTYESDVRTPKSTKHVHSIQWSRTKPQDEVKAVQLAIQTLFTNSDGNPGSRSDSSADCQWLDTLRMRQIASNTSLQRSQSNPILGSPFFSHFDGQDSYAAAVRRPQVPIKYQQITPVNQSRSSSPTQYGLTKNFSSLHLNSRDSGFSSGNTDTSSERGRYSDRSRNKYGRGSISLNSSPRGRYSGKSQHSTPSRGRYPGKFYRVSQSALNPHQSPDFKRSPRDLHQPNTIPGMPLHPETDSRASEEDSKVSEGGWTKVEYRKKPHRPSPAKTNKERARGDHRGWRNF
Sequence of Sodium-dependent serotonin transporter (Homo sapiens) (P31645 whole entry, looked up): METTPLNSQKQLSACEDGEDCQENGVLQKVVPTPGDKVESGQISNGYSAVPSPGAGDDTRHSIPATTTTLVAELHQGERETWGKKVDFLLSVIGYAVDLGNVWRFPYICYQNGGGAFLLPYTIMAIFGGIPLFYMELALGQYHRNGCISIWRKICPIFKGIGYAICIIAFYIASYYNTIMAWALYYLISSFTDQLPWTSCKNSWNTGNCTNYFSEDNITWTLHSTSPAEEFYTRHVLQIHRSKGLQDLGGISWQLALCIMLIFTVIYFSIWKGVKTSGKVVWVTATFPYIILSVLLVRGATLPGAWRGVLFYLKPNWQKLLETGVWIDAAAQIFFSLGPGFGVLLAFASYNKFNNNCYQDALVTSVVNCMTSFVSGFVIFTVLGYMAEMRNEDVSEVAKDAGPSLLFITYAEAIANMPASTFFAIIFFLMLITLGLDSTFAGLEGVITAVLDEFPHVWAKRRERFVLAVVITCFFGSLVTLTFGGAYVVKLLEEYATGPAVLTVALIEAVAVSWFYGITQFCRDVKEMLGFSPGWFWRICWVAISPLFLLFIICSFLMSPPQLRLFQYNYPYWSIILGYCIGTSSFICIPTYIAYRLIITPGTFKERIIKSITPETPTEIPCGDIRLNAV
Sequence of Cyclin-G-associated kinase (Homo sapiens) (O14976 whole entry): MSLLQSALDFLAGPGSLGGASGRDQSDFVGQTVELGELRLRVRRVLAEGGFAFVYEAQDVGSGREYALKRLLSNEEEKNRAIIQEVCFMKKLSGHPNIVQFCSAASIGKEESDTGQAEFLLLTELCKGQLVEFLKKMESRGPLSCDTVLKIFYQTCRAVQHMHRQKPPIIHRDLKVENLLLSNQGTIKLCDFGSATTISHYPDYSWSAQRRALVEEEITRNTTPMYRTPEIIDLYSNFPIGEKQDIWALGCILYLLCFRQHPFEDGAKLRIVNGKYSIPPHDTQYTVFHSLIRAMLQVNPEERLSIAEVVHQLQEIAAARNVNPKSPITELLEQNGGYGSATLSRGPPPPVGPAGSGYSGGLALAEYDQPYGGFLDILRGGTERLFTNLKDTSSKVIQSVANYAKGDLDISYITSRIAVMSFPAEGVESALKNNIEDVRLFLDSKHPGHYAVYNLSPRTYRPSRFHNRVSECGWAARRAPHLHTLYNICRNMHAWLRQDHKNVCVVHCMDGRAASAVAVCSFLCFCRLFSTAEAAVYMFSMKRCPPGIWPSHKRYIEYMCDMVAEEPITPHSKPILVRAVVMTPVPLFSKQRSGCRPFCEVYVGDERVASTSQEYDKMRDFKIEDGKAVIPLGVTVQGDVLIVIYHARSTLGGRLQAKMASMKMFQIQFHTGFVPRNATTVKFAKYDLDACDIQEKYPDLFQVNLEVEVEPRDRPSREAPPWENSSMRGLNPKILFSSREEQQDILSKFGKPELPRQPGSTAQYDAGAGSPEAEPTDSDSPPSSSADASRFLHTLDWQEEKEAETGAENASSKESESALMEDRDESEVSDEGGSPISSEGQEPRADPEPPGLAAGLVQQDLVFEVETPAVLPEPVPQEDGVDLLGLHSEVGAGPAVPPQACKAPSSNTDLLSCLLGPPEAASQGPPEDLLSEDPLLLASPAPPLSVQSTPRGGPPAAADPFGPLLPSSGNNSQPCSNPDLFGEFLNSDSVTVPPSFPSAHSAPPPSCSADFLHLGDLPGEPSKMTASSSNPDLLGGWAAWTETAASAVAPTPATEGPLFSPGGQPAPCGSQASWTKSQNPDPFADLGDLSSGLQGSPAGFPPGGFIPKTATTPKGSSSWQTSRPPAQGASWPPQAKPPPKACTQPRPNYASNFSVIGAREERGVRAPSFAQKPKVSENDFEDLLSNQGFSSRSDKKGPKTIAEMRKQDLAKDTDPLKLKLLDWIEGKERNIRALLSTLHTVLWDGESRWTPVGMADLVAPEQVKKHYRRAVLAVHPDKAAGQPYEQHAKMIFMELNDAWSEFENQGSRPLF
Sequence of Rhodopsin kinase GRK1 (Homo sapiens) (Q15835 whole entry): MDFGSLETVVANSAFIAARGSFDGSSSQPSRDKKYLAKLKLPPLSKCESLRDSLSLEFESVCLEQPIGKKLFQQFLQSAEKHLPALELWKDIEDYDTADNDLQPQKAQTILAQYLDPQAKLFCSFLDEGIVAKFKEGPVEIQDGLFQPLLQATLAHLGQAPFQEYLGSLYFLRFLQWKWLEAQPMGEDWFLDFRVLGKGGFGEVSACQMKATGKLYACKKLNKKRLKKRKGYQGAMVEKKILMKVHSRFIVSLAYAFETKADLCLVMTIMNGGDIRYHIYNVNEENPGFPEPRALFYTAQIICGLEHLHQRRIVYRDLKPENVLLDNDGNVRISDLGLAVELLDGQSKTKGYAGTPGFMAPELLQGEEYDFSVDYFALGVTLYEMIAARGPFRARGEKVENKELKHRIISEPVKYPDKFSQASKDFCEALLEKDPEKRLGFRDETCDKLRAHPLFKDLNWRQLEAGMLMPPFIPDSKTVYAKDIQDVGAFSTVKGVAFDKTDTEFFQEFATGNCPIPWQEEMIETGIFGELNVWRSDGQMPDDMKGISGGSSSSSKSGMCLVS

CO[C@@H](C)c1c(Nc2ccc([C@@H](N(C)C(=O)C3CCS(=O)(=O)CC3)C(F)(F)F)cc2)cnc2cc(Cl)nn12 [NVS-MALT1-C]
inactive: residual activity [1] 89% | residual activity [2] 100% | residual activity [3] 82% | residual activity [4] 100% | residual activity [5] 93% | inhibition [6] -3.07% | residual activity [7] 100% | residual activity [8] 100% | residual activity [9] 95% | residual activity [10] 100% | residual activity [11] 85% | residual activity [12] 87% | residual activity [13] 88% | residual activity [14] 64% | inhibition [15] 14.6% | residual activity [16] 84% | residual activity [17] 100% | residual activity [18] 100% | residual activity [19] 86% | residual activity [20] 91% | residual activity [21] 100% | residual activity [22] 86% | residual activity [23] 91% | residual activity [24] 100% | residual activity [25] 51% | residual activity [26] 100% | residual activity [27] 86% | residual activity [28] 100% | residual activity [29] 100% | residual activity [30] 100% | residual activity [31] 65% | inhibition [32] 11.4% | residual activity [33] 100% | residual activity [34] 91% | residual activity [35] 96% | residual activity [36] 95% | residual activity [37] 100% | residual activity [38] 91% | residual activity [39] 91% | residual activity [40] 98% | inhibition [41] 3.25% | residual activity [42] 100% | residual activity [43] 86% | residual activity [44] 83% | residual activity [45] 58%

CO[C@@H](C)c1c(Nc2ccc([C@H](N(C)C(=O)C3CCS(=O)(=O)CC3)C(F)(F)F)cc2)cnc2cc(Cl)nn12 [NVS-MALT1]
inactive: residual activity [1] 89% | residual activity [2] 100% | residual activity [3] 81% | residual activity [4] 100% | residual activity [5] 98% | inhibition [6] -2.45% | residual activity [7] 100% | residual activity [8] 100% | residual activity [9] 90% | residual activity [10] 94% | residual activity [11] 82% | residual activity [12] 87% | residual activity [13] 84% | residual activity [14] 68% | inhibition [15] 11.3% | residual activity [16] 89% | residual activity [17] 100% | residual activity [18] 100% | residual activity [19] 82% | residual activity [20] 91% | residual activity [21] 100% | residual activity [22] 100% | residual activity [23] 73% | residual activity [24] 100% | residual activity [25] 51% | residual activity [26] 100% | residual activity [27] 68% | residual activity [28] 100% | residual activity [29] 100% | residual activity [30] 100% | residual activity [31] 54% | inhibition [32] 12.5% | residual activity [33] 100% | residual activity [34] 85% | residual activity [35] 84% | residual activity [36] 89% | residual activity [37] 100% | residual activity [38] 100% | residual activity [39] 84% | residual activity [40] 80% | inhibition [41] -4.22% | residual activity [42] 100% | residual activity [43] 79% | residual activity [44] 99% | residual activity [45] 91%
